Reference: US9498466B2, “Pyrrole inhibitors of S-nitrosoglutathione reductase as therapeutic agents” (Nivalis Therapeutics, Inc., priority 2008, dated 2016)

How the values were obtained:
[1] = system: OVA sensitized mice; experiment: GSNOR inhibition assay in an in vivo animal model: OVA mouse model of asthma, methacholine challenge, Penh; details: 1 mg/kg, 10 mg/kg or 30 mg/kg intravenously at 24 hours prior
Experimental: In an effort to determine if similar observations would manifest if GSNOR were inhibited pharmacologically by a GSNOR inhibitor, an OVA mouse model (i.e., the wild-type model of Que et al.) was used. In this study, OVA sensitized mice were administered 1 mg/kg, 10 mg/kg or 30 mg/kg of Compound 1 intravenously at 24 hours prior to being placed in a whole body plethysmograph (Buxco Research Systems, Wilmington, N.C.) and provided with fresh air.
Subject animals were then challenged with an aerosol of increasing dosages of the bronchoconstrictive agent methacholine, a pharmacologic agent commonly used in determining the degree of bronchial hyper-reactivity in experimental subjects. In this study mice were exposed to an increasing concentration of methacholine, each dose being presented for 3 minutes, during which time readings were taken. Doses of methacholine were 0 mg/ml, 5 mg/ml, 20 mg/ml, and 50 mg/ml. The degree of bronchial hyper-reactivity was measured as the ‘Enhanced Pause’ (Penh), a unit-less index of airway hyper-reactivity (Dohi et al., Lab Invest. 79(12):1559-1571, 1999).

[2] = system: mouse model of ovalbumin (OVA)-induced asthma; experiment: Experimental asthma model: pulmonary function testing (Penh) after MCh challenge; type: in vivo; details: read-out: area under the curve (AUC) for Penh response reported as percent of vehicle control
Experimental: A mouse model of ovalbumin (OVA)-induced asthma was used to screen GSNOR inhibitors for efficacy against methacholine (MCh)-induced bronchoconstriction/airway hyper-reactivity. […] Efficacy of GSNOR inhibitors were assessed using a prophylactic protocol in which GSNOR inhibitors were administered prior to challenge with MCh. Bronchoconstriction in response to challenge with increasing doses of MCh was assessed using whole body plethysmography (Penh; Buxco). […] The effect of GSNOR inhibitors were compared to vehicles and to Combivent (inhaled; IH) as the positive control. […]
In vivo airway responsiveness to methacholine was measured 24 h after the last OVA challenge in conscious, freely moving, spontaneously breathing mice with whole body plethysmography using a Buxco chamber (Wilmington, N.C.). […] The degree of bronchoconstriction was expressed as enhanced pause (Penh), a calculated dimensionless value, which correlates with the measurement of airway resistance, impedance, and intrapleural pressure in the same mouse. Penh readings were taken and averaged for 4 min. after each nebulization challenge. Penh was calculated as follows: Penh enh=[(Te/Tr−1)×(PEF/PIF)], where Te is expiration time, Tr is relaxation time, PEF is peak expiratory flow, and PIF is peak inspiratory flow×0.67 coefficient. […]

Row | Compound | broncho-constrictive responses to methacholine (Penh) compared with vehicle-only dosed animals [1] | response vs control in vivo at 0.1 mg/kg ([2]; single IV dose of 0.1 mg/kg at 24 h prior to MCh) | response vs control in vivo at 1 mg/kg ([2]; single IV dose of 1 mg/kg at 24 h prior to MCh)
1 | Cc1cc(C(N)=O)ccc1-n1c(CCC(=O)O)ccc1-c1ccc(-n2ccnc2)cc1 [Compound 1, 3-(5-(4-(1H-imidazol-1-yl)phenyl)-1-(4-carbamoyl-2-methylphenyl)-1H-pyrrol-2-yl)propanoic acid] | lower broncho-constrictive responses |  | 
2 | Cc1cc(C(N)=O)ccc1-n1c(CCC(=O)O)ccc1-c1ccc(Br)cc1 [Compound 7, 3-(5-(4-bromophenyl)-1-(4-carbamoyl-2-methylphenyl)-1H-pyrrol-2-yl)propanoic acid] |  | 56.1 ± 2.2% | 50.4 ± 3.7%
